PubChem BioAssay (NCI)
Where “and” joins values, the source holds several entries; their conditions need not be identical. Identical values can stand only once.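 Method: 48-hour compound exposure of cells in 96-well plates, five concentrations, linear interpolation of endpoints. TGI: total growth inhibition.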

Columns and labels:
Assay in all cases: inhibition of tumour cell growth, NCI panel, 48 h
[1] = test system: SK-MEL-28 melanoma
[2] = test system: RXF 393 renal
[3] = test system: SK-MEL-5 melanoma
[4] = test system: HOP-62 NSCLC
[5] = test system: TK-10 renal
[6] = test system: SNB-19 CNS
[7] = test system: U251 CNS
[8] = test system: CAKI-1 renal
[9] = test system: PC-3 prostate
[10] = test system: UACC-62 melanoma

| Compound | TGI [1] [µM] | TGI [2] | TGI [3] | TGI [4] [µM] | TGI [5] [µM] | TGI [6] [µM] | TGI [7] [µM] | TGI [8] [µM] | TGI [9] [µM] | TGI [10] [µM] |
| --- | --- | --- | --- | --- | --- | --- | --- | --- | --- | --- |
| CCN(CC)CCC1(C(=O)OC)SCCc2ccc(C)cc21 (stereo not given) | > 100 | > 100 µM | > 100 µM | > 100 | > 100 | > 100 | > 100 | > 100 | > 100 | > 100 |
| CC(=O)OCC12C(OC(C)=O)C[C@@H](C)C3(CC(c4ccoc4)OC3=O)C1CCC(OC(C)=O)C21CO1 (stereo not given in full) | > 100 | > 100 µM | > 100 µM | > 100 | > 100 | > 100 | > 100 | > 100 | > 100 | > 100 |
| Cc1nc2cccc(F)c2c(=O)n1-c1nnc(C2CC2)s1 | > 10 | > 10 µM | > 10 µM | > 10 | > 10 | > 10 | > 10 | > 10 | > 10 | > 10 |
| N#Cc1c(NC(=S)Nc2ccccc2)sc2c1CCCC2 | > 100 | > 100 µM | > 100 µM | > 100 | > 100 | > 100 | > 100 | > 100 | > 100 | > 100 |
| CC(=O)OC1COC(n2c(N)c(C#N)c(-c3ccccc3)c(C#N)c2=S)C(OC(C)=O)C1OC(C)=O (stereo not given) | > 100 | 83.1 µM and > 100 µM | > 100 µM and 95.4 µM | > 100 | 94 | > 100 | > 100 | > 100 | > 100 | > 100 |
| CC(C)(CO)Nc1c(O)c2c(c(O)c1Cl)C(=O)C=CC2=O | 3.32 | 3.31 µM | 2.35 µM | 2.95 | 3.36 | 3.5 | 3.11 | 3.41 | 3.41 | 2.72 |
| C/C(=N/NC(=O)c1ccccc1Nc1ccccc1C(=O)N/N=C(\C)c1ccc(C)cc1)c1ccc(C)cc1 | > 100 | > 100 µM | > 100 µM | > 100 | > 100 | > 100 | > 100 | > 100 | > 100 | > 100 |
| CC1CC2OC(=N)C1(C#N)C2(C#N)C#N (stereo not given) | > 100 | 31.1 µM | 22.2 µM | 35.2 | 71.6 | > 100 | > 100 | 20.5 | 71.7 | > 100 |
| O=C(N(C1=CCCC1)N(c1ccccc1)c1ccccc1)C(F)(F)F | > 100 | 38.8 µM | 35.6 µM | 69.4 | > 100 | > 100 | 42.2 | 80.4 | > 100 | > 100 |
| Fc1sc2c(c1F)C1CCC2C1 (stereo not given) | > 100 | > 100 µM | > 100 µM | > 100 | > 100 | > 100 | > 100 | > 100 | > 100 | > 100 |
| Oc1cccc(-c2cn3cc(Cl)ccc3n2)c1 | > 100 | 86 µM | 35.9 µM | > 100 | > 100 | > 100 | > 100 | > 100 | > 100 | > 100 |
| O=C(CSCC(=O)N/N=C\c1cccc(Br)c1)N/N=C\c1cccc(Br)c1 | 41.7 | 67.9 µM | 42.3 µM | 31.7 | 24.8 | > 100 | 28.8 | 37.1 | 38.1 | 29.4 |
| CCOC(=O)CCC1(C(=O)O[C@@H]2C[C@H](C)CC[C@H]2C(C)C)CCCCC1=O (stereo not given in full) | > 100 | > 100 µM | > 100 µM | > 100 | > 100 | > 100 | > 100 | > 100 | > 100 | > 100 |
| C=C1CC2C[C@H](OS(=O)(=O)c3ccc(C)cc3)C(C1)N2C (stereo not given in full) | > 100 | > 100 µM | > 100 µM | > 100 | > 100 | > 100 | > 100 | > 100 | > 100 | > 100 |
| CCCCCC(=O)OCC1(CO)C/C(=C/CC(C(C)C)C(C)C)C(=O)O1 (stereo not given) | > 75 | > 75 µM | > 75 µM | > 75 | > 75 | > 75 | > 75 | 66.8 | > 75 | > 75 |
| N#Cc1nc(-c2ccccn2)c(-c2ccccn2)nc1C#N | 45.6 | 15.9 µM | > 36.5 µM | 17 | 17.3 | 22 | > 37.3 | 6.81 | 19.7 | 5.1 |
